Reference: the supplement of paper PMC11061612

What was measured:
Assay in all cases: combination Emax (second highest fraction inhibited in the dose matrix, 72 h); higher = more inhibition; extreme values may be limits of the assay
[1] = test system: BHT-101 (Thyroid Gland Carcinoma)
How it was run: (§1)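 Cell lines in DMEM/F12 or RPMI with 10% FBS were plated in 1536-well plates, held 24 hours at 37°C, 5% CO2, then given two-drug dose matrices for 72 hours (DMSO typically 0.2%). Viability was read by CellTiter-Glo 2.0 luminescence and scaled as inhibition from 0 (vehicle wells) to 1 (blank wells). Combination Emax is the second-highest inhibition in the matrix; Bliss excess is observed combination effect minus expected EA + EB − EA·EB, EA and EB being single-agent effects.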

[2] = test system: CPC-N (Small Cell Lung Carcinoma)
How it was run: as §1

[3] = test system: ES6 (Ewing's Sarcoma)
How it was run: as §1

[4] = test system: GAK (Melanoma)
How it was run: as §1

[5] = test system: IA-LM (Non-Small Cell Lung Carcinoma)
How it was run: as §1

[6] = test system: KP-4 (Pancreatic Carcinoma)
How it was run: as §1

[7] = test system: LCLC-103H (Non-Small Cell Lung Carcinoma)
How it was run: as §1

[8] = test system: MDA-MB-415 (Breast Carcinoma)
How it was run: as §1

[9] = test system: MOLT-13 (T-Lymphoblastic Leukemia)
How it was run: as §1

[10] = test system: MONO-MAC-6 (Acute Myeloid Leukemia)
How it was run: as §1

[11] = test system: NCI-H1876 (Small Cell Lung Carcinoma)
How it was run: as §1

[12] = test system: NCI-H1963 (Small Cell Lung Carcinoma)
How it was run: as §1

[13] = test system: NCI-H226 (Mesothelioma)
How it was run: as §1

[14] = test system: NCI-H596 (Other Solid Carcinomas)
How it was run: as §1

[15] = test system: OVCAR-3 (Ovarian Carcinoma)
How it was run: as §1

[16] = test system: PA-TU-8988T (Pancreatic Carcinoma)
How it was run: as §1

[17] = test system: SCC-4 (Oral Cavity Carcinoma)
How it was run: as §1

[18] = test system: SK-CO-1 (Colorectal Carcinoma)
How it was run: as §1

[19] = test system: SK-N-SH (Neuroblastoma)
How it was run: as §1

[20] = test system: SNU-407 (Colorectal Carcinoma)
How it was run: as §1

| SMILES | combination Emax [1] | combination Emax [2] | combination Emax [3] | combination Emax [4] | combination Emax [5] | combination Emax [6] | combination Emax [7] | combination Emax [8] | combination Emax [9] | combination Emax [10] | combination Emax [11] | combination Emax [12] | combination Emax [13] | combination Emax [14] | combination Emax [15] | combination Emax [16] | combination Emax [17] | combination Emax [18] | combination Emax [19] | combination Emax [20] |
| --- | --- | --- | --- | --- | --- | --- | --- | --- | --- | --- | --- | --- | --- | --- | --- | --- | --- | --- | --- | --- |
| CN(C)CCCOc1ccc(-c2ccc3ncc4c(c3c2)n(C2CCOCC2)c(=O)n4C)cn1 [AZD0156] + C=CCn1c(=O)c2cnc(Nc3ccc(N4CCN(C)CC4)cc3)nc2n1-c1cccc(C(C)(C)O)n1 [AZD1775] (first compound max 1 µM, partner max 1 µM) | 0.423 | 0.972 | 0.306 | 0.745 | 0.231 | 0.571 | 0.519 | 0.177 | 0.977 | 0.886 | 0.982 | 0.87 | 0.196 | 0.307 | 0.32 | 0.718 | 0.526 | 0.562 | 0.799 | 0.358 |
| CN(C)CCCOc1ccc(-c2ccc3ncc4c(c3c2)n(C2CCOCC2)c(=O)n4C)cn1 [AZD0156] + CCN(CCO)CCCOc1ccc2c(Nc3cc(CC(=O)Nc4cccc(F)c4)[nH]n3)ncnc2c1 [AZD2811] (first compound max 1 µM, 7x7, partner max 1 µM) | 0.203 | 0.794 | 0.176 | 0.198 | 0.0974 | 0.327 | 0.29 | 0.206 | 0.99 | 0.743 | 0.853 | 0.857 | 0.0682 | 0.207 | 0.105 | 0.219 | 0.336 | 0.798 | 0.479 | 0.287 |
| CN(C)CCCOc1ccc(-c2ccc3ncc4c(c3c2)n(C2CCOCC2)c(=O)n4C)cn1 [AZD0156] + C[C@@H]1COCCN1C2=NC(=NC(=C2)C3(CC3)[S@](=N)(=O)C)C4=C5C=CNC5=NC=C4 [AZD6738] (first compound max 1 µM, 7x7, partner max 10 µM) | 0.627 | 0.952 | 0.557 | 0.703 | 0.304 | 0.451 | 0.55 | 0.395 | 0.925 | 0.858 | 0.938 | 0.804 | 0.0975 | 0.454 | 0.271 | 0.476 | 0.702 | 0.721 | 0.87 | 0.742 |
| CN(C)CCCOc1ccc(-c2ccc3ncc4c(c3c2)n(C2CCOCC2)c(=O)n4C)cn1 [AZD0156] + O=C(c1cc(Cc2n[nH]c(=O)c3ccccc23)ccc1F)N1CCN(C(=O)C2CC2)CC1 [Olaparib] (first compound max 3 µM, partner max 3 µM) | 0.362 | 0.396 | 0.315 | 0.193 | 0.305 | 0.287 | 0.289 | 0.325 | 0.397 | 0.461 | 0.807 | – | 0.251 | 0.41 | 0.227 | 0.211 | 0.164 | 0.608 | 0.292 | 0.296 |
| C=CCn1c(=O)c2cnc(Nc3ccc(N4CCN(C)CC4)cc3)nc2n1-c1cccc(C(C)(C)O)n1 [AZD1775] + C1CN(CCC1(C(=O)N[C@@H](CCO)C2=CC=C(C=C2)Cl)N)C3=NC=NC4=C3C=CN4 [Capivasertib] (first compound max 3 µM, partner max 3 µM) | 0.631 | 0.948 | 0.472 | 0.73 | 0.413 | 0.787 | 0.626 | 0.764 | 0.973 | 0.95 | 0.956 | – | 0.45 | 0.708 | 0.695 | 0.851 | 0.505 | 0.691 | 0.711 | 0.675 |
| C=CCn1c(=O)c2cnc(Nc3ccc(N4CCN(C)CC4)cc3)nc2n1-c1cccc(C(C)(C)O)n1 [AZD1775] + C[C@@H]1COCCN1C2=NC(=NC(=C2)C3(CC3)[S@](=N)(=O)C)C4=C5C=CNC5=NC=C4 [AZD6738] (first compound max 1 µM, partner max 10 µM) | 0.771 | 0.999 | 0.652 | 0.821 | 0.446 | – | 0.752 | 0.595 | 1 | 1 | 0.987 | 1 | 0.466 | 0.663 | 0.74 | 0.833 | 0.763 | 0.738 | 0.953 | 0.758 |
